The test system of test [1] is WM3248, SKMel3, A375, SW480, and SKM28. The test can be described thus: cells. The settings on record: Homo sapiens, read-out: IC50 across cancer cell lines. How it is done: (§1) Cancer cell line viability assay was performed using a CellTiterGlo assay. Cells were cultured in their appropriate media and seeded in white multi-well plates. For the assays, cells were incubated with compound at 37°C overnight, and a CellTiterGlo assay was performed to quantify viable cells.

The test system of test [2] is WM3248. Briefly: cells. The settings on record: Homo sapiens, WM3248, read-out: IC50 WM3248. How it is done:
as §1

The subject of test [3] is VMOs (vessels, no tumor cells). Briefly: Vascularized micro-organ (VMO) assay. In kind it is cell-based, Human. The conditions noted are these: no tumor cells (Figure 4D).
Description: (§3) Briefly, human endothelial colony-forming cell-derived endothelial cells (ECFC-EC) are isolated from cord blood via selection for the CD31 + cell population and cultured in EGM2 medium (Lonza). […] Cancer cells and LF are cultured in DMEM (Corning) containing 10% FBS (Gemini Bio). […] To load the microfluidic device, ECFC-EC and LF (both 8 × 10^6 cells/mL) and cancer cells (2.5 × 10^6 cells/mL) were resuspended in fibrinogen solution (10 mg/mL basal medium). The cell slurry was then mixed with 1 mL thrombin (3 U/mL) to catalyze gel solidification and quickly loaded into the tissue chambers of each VMT unit. […] All cells and VMTs are cultured in a 37°C, 20% O2, 5% O2 environment.
(§4) Fluorescence images were acquired with an Olympus IX70 inverted microscope using SPOT software (SPOT Imaging, Sterling Heights, Michigan). […] Each chamber was normalized to time 0 baseline.
In test [4] the test system is SKMel28 melanoma cells. The test can be described thus: Cancer cell line viability assay (CellTiterGlo). Type of test: cell-based, Human. The settings on record: for dose response in SKM28 cell lines: Figure S2F; for decrease of activity compared with the hit: SKM28 cells, versus ARN12405. Background: ATP-based viability assays read luminescence as a measure of living cells.

The subject of test [5] is A375 VMT. Briefly: Vascularized microtumor (VMT) assay. Type of test: cell-based, Human. The settings on record: 2 μM.
Description: as §3, §4
The target of test [6] is T1, CDC42 and PAK1-PBD interaction (Homo sapiens, UniProt P60953).
T1 construct: endogenous in cells; host or cells: WM3248 (or WM983B) melanoma cells; PAK1 PBD beads from Cell Biolabs kit
T1 sequence (P60953 1-188 limits assumed): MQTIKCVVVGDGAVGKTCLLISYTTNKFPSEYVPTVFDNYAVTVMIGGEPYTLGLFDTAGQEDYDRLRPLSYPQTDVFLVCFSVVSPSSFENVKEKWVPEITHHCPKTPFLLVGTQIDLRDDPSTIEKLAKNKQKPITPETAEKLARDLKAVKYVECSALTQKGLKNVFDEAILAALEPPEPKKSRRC
The test can be described thus: CDC42 interaction assay (PAK1-PBD pull-down). In kind it is cell-based. The settings on record: WM3248 cells; ARN22089 at 10 and 50 μM, lysates incubated with GTP; ARN12405 indicated doses (Fig S2B). How it is done:
(§2) 24 hours later the lysates from treated and untreated cells were unloaded of guanosine nucleotides and either loaded with GDP or GTPγS. […] Precipitated lysates were then immunoblotted with indicated antibodies.

The target in test [7] is T2, RHOJ and PAK1-PBD interaction (Homo sapiens, UniProt Q9H4E5).
T2 construct: endogenous in cells; host or cells: WM3248 (or WM983B) melanoma cells; PAK1 PBD beads from Cell Biolabs kit
T2 sequence (Q9H4E5 1-211 limits assumed): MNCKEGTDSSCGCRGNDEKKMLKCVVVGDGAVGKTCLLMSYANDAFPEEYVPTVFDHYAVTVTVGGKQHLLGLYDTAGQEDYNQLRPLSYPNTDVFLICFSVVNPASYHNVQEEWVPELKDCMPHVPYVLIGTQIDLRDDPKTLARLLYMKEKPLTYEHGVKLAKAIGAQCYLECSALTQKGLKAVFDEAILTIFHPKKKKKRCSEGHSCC
Briefly: CDC42 interaction assay (PAK1-PBD pull-down). The conditions noted are these: WM3248 cells; ARN22089 at 10 and 50 μM, lysates incubated with GTP; ARN12405 indicated doses (Fig S2B). In kind it is cell-based. As for the experimental part: as §2

Each structure is given as a SMILES string. pIC50: −log10 of the molar value. Entries after “also recorded” stand apart in the source; their conditions may differ.

Consider `Clc1ccc(Nc2cc(-c3ccccc3)nc(C3CCCNC3)n2)cc1` (centres unmarked) [ARN21698], for which the negative-log IC50 (pIC50) (as a rule, the negative decadic logarithm of the IC50, by convention in mol/L) in test [1] is 4.96 to 5.20; in test [2] it was 5.07.
As for `Cc1ccc(F)c(NC(=O)Nc2ccc(-c3cccc4[nH]nc(N)c34)cc2)c1` [linifanib], the “vessel growth / angiogenesis in VMOs” value in test [3] was “did inhibit angiogenesis”.
As for `CN(C)c1ccc(Nc2cc(-c3ccccc3)nc(C3CCOCC3)n2)cc1` [ARN22163, N4,N4-dimethyl-N1-(6-phenyl-2-tetrahydropyran-4-yl-pyrimidin-4-yl)benzene-1,4-diamine], the “dose response in SKM28 cell lines” value in test [4] was “no dose response”.
Take `Clc1cccc(Nc2cc(-c3ccncc3)nc(C3CCCNC3)n2)c1` (centres unmarked) [ARN21700]: in test [4], the “decrease of activity compared with the hit” value is listed as 2 fold. The negative-log IC50 (pIC50) in test [2] was 4.51.
As for `COc1ccc(Nc2cc(-c3ccccc3)nc(C3CCOCC3)n2)cc1` [ARN22162, N-(4-methoxyphenyl)-6-phenyl-2-tetrahydropyran-4-yl-pyrimidin-4-amine], the “dose response in SKM28 cell lines” value in test [4] is given as “no dose response”.
With `CCn1c(=O)c(-c2ccc(-c3cncs3)cc2Cl)cc2cnc(Nc3ccc(N4CCN(C)CC4)cc3)nc21` [FRAX597], the “growth of A375 cells and blood vessels in VMT” value in test [5] is reported as “did not significantly inhibit”.
With `Clc1ccc(Nc2cc(-c3ccncc3)nc(C3CCCNC3)n2)cc1` (centres unmarked) [ARN12405], the “inhibition of CDC42 - PAK1-PBD interaction” value in test [6] is on record as “inhibits RHOJ/CDC42-PAK interactions; also recorded: blocked the RHOJ/CDC42 PAK interaction”. Also, in test [7], the “inhibition of RHOJ - PAK1-PBD interaction” value is “inhibits RHOJ/CDC42-PAK interactions; also recorded: blocked the RHOJ/CDC42 PAK interaction”.
As for `c1ccc(Nc2cc(-c3ccncc3)nc(C3CCCNC3)n2)cc1` (centres unmarked) [ARN21699], the “decrease of activity compared with the hit” value in test [4] turned out to be 2 fold.
